Data taken from BigSolDB 2.1.

C=CC(=O)NC(C)(C)CS(=O)(=O)O
Conditions | solubility (mole fraction)
in 1,4-dioxane, 288.15 K | 0.000105
in 1,4-dioxane, 293.15 K | 0.000168
in 1,4-dioxane, 298.15 K | 0.000274
in 1,4-dioxane, 303.15 K | 0.000425
in 1,4-dioxane, 308.15 K | 0.000657
in 1,4-dioxane, 313.15 K | 0.000978
in 1,4-dioxane, 318.15 K | 0.00139
in 1,4-dioxane, 323.15 K | 0.00195
in 1,4-dioxane, 328.15 K | 0.00268
in acetone, 283.15 K | 0.00625
in acetone, 288.15 K | 0.00695
in acetone, 293.15 K | 0.00795
in acetone, 298.15 K | 0.00921
in acetone, 303.15 K | 0.0107
in acetone, 308.15 K | 0.0126
in acetone, 313.15 K | 0.0148
in acetone, 318.15 K | 0.0173
in acetone, 323.15 K | 0.0205
in acetone, 328.15 K | 0.0244
in acetonitrile, 283.15 K | 3.11e-05
in acetonitrile, 288.15 K | 5.19e-05
in acetonitrile, 293.15 K | 9.14e-05
in acetonitrile, 298.15 K | 0.000154
in acetonitrile, 303.15 K | 0.000265
in acetonitrile, 308.15 K | 0.000436
in acetonitrile, 313.15 K | 0.000696
in acetonitrile, 318.15 K | 0.00107
in acetonitrile, 323.15 K | 0.0016
in acetonitrile, 328.15 K | 0.00237
in cyclohexane, 283.15 K | 2.64e-05
in cyclohexane, 288.15 K | 4.73e-05
in cyclohexane, 293.15 K | 7.77e-05
in cyclohexane, 298.15 K | 0.000139
in cyclohexane, 303.15 K | 0.000229
in cyclohexane, 308.15 K | 0.000359
in cyclohexane, 313.15 K | 0.000567
in cyclohexane, 318.15 K | 0.000867
in cyclohexane, 323.15 K | 0.00125
in cyclohexane, 328.15 K | 0.00179
in ethanol, 283.15 K | 0.00721
in ethanol, 288.15 K | 0.00794
in ethanol, 293.15 K | 0.00893
in ethanol, 298.15 K | 0.0102
in ethanol, 303.15 K | 0.0118
in ethanol, 308.15 K | 0.0138
in ethanol, 313.15 K | 0.0161
in ethanol, 318.15 K | 0.0189
in ethanol, 323.15 K | 0.0225
in ethanol, 328.15 K | 0.0264
in ethyl acetate, 283.15 K | 0.00106
in ethyl acetate, 288.15 K | 0.00142
in ethyl acetate, 293.15 K | 0.00198
in ethyl acetate, 298.15 K | 0.00262
in ethyl acetate, 303.15 K | 0.00338
in ethyl acetate, 308.15 K | 0.00431
in ethyl acetate, 313.15 K | 0.00543
in ethyl acetate, 318.15 K | 0.00672
in ethyl acetate, 323.15 K | 0.00829
in ethyl acetate, 328.15 K | 0.0103
in ethylene glycol, 283.15 K | 0.000463
in ethylene glycol, 288.15 K | 0.000687
in ethylene glycol, 293.15 K | 0.00105
in ethylene glycol, 298.15 K | 0.00162
in ethylene glycol, 303.15 K | 0.00237
in ethylene glycol, 308.15 K | 0.00329
in ethylene glycol, 313.15 K | 0.00444
in ethylene glycol, 318.15 K | 0.00583
in ethylene glycol, 323.15 K | 0.00757
in ethylene glycol, 328.15 K | 0.00972
in isobutanol, 283.15 K | 0.00229
in isobutanol, 288.15 K | 0.00267
in isobutanol, 293.15 K | 0.00322
in isobutanol, 298.15 K | 0.00394
in isobutanol, 303.15 K | 0.00485
in isobutanol, 308.15 K | 0.00596
in isobutanol, 313.15 K | 0.00728
in isobutanol, 318.15 K | 0.00885
in isobutanol, 323.15 K | 0.0107
in isobutanol, 328.15 K | 0.0131
in isopropanol, 283.15 K | 0.000208
in isopropanol, 288.15 K | 0.000333
in isopropanol, 293.15 K | 0.00056
in isopropanol, 298.15 K | 0.000882
in isopropanol, 303.15 K | 0.00129
in isopropanol, 308.15 K | 0.00186
in isopropanol, 313.15 K | 0.00266
in isopropanol, 318.15 K | 0.00373
in isopropanol, 323.15 K | 0.00508
in isopropanol, 328.15 K | 0.00671
in methanol, 283.15 K | 0.00916
in methanol, 288.15 K | 0.0103
in methanol, 293.15 K | 0.0117
in methanol, 298.15 K | 0.0138
in methanol, 303.15 K | 0.0163
in methanol, 308.15 K | 0.0193
in methanol, 313.15 K | 0.0227
in methanol, 318.15 K | 0.0268
in methanol, 323.15 K | 0.0322
in methanol, 328.15 K | 0.0383
in n-butanol, 283.15 K | 0.00359
in n-butanol, 288.15 K | 0.00403
in n-butanol, 293.15 K | 0.00468
in n-butanol, 298.15 K | 0.0055
in n-butanol, 303.15 K | 0.00649
in n-butanol, 308.15 K | 0.00773
in n-butanol, 313.15 K | 0.00922
in n-butanol, 318.15 K | 0.011
in n-butanol, 323.15 K | 0.0133
in n-butanol, 328.15 K | 0.0159
in n-heptanol, 283.15 K | 0.00327
in n-heptanol, 288.15 K | 0.00369
in n-heptanol, 293.15 K | 0.00426
in n-heptanol, 298.15 K | 0.00496
in n-heptanol, 303.15 K | 0.00582
in n-heptanol, 308.15 K | 0.0069
in n-heptanol, 313.15 K | 0.00824
in n-heptanol, 318.15 K | 0.00987
in n-heptanol, 323.15 K | 0.0118
in n-heptanol, 328.15 K | 0.0145
in n-propanol, 283.15 K | 0.00399
in n-propanol, 288.15 K | 0.00463
in n-propanol, 293.15 K | 0.00542
in n-propanol, 298.15 K | 0.00646
in n-propanol, 303.15 K | 0.00764
in n-propanol, 308.15 K | 0.0091
in n-propanol, 313.15 K | 0.0108
in n-propanol, 318.15 K | 0.0129
in n-propanol, 325.15 K | 0.0158
in n-propanol, 328.15 K | 0.0188
